Reference: ChEMBL document CHEMBL1641446, “Novel pyrrolo[2,1-f][1,2,4]triazin-4-amines: Dual inhibitors of EGFR and HER2 protein tyrosine kinases” (Bioorg Med Chem Lett, 2011)

Assays:
NCI-N87 [1] = experiment: Antiproliferative activity against human NCI-N87 cells; assay type: functional, cell-based
[2] = target: Epidermal growth factor receptor (Homo sapiens) (UniProt P00533); experiment: Inhibition of EGFR
A2780 = experiment: Antiproliferative activity against human A2780 cells; assay type: functional, cell-based
[3] = target: Receptor tyrosine-protein kinase erbB-2 (Homo sapiens) (UniProt P04626); experiment: Inhibition of HER2
[4] = Antitumor activity against human GEO cells xenografted in po dosed athymic mouse assessed as minimum effective dose; assay type: functional; settings: read-out: MED
[5] = target: Vascular endothelial growth factor receptor 2 (Homo sapiens, UniProt P35968); experiment: Inhibition of KDR
[6] = Drug level in BALB/c mouse at 15 mg/kg, po after 3 hrs; assay type: ADME, organism-based; parameters: dose 15 mg/kg, route oral; settings: in vivo, read-out: Drug uptake
[7] = AUC ( 0 to 24 hrs) in BALB/c mouse at 15 mg/kg, po; assay type: ADME, organism-based; parameters: time < 24 hr, dose 15 mg/kg, route oral; settings: plasma
[8] = Drug level in BALB/c mouse at 15 mg/kg, po after 24 hrs; assay type: ADME, organism-based; parameters: dose 15 mg/kg, route oral; settings: in vivo, read-out: Drug uptake
[9] = Fraction unbound in BALB/c mouse serum at 10 uM by equilibrium dialysis; assay type: ADME, cell-free
[10] = target: Tyrosine-protein kinase Lck (Homo sapiens, UniProt P06239); experiment: Inhibition of LCK
[11] = Drug level in BALB/c mouse at 240 mg/kg, po after 24 hrs; assay type: ADME, organism-based; parameters: dose 240 mg/kg, route oral; settings: in vivo, read-out: Drug uptake
[12] = Drug level in BALB/c mouse at 240 mg/kg, po after 3 hrs; assay type: ADME, organism-based; parameters: dose 240 mg/kg, route oral; settings: in vivo, read-out: Drug uptake
[13] = AUC ( 0 to 24 hrs) in BALB/c mouse at 240 mg/kg, po; assay type: ADME, organism-based; parameters: time < 24 hr, dose 240 mg/kg, route oral; settings: plasma
NCI-N87 [14] = experiment: Antitumor activity against human NCI-N87 cells xenografted in po dosed athymic mouse assessed as minimum effective dose administered Q1D for 14 days; settings: 336 h, read-out: MED
[15] = Cmax in BALB/c mouse at 50 mg/kg, po; assay type: ADME, organism-based; parameters: dose 50 mg/kg, route oral; settings: in vivo
[16] = Drug level in BALB/c mouse at 50 mg/kg, po after 4 hrs; assay type: ADME, organism-based; parameters: dose 50 mg/kg, route oral; settings: in vivo, read-out: Drug uptake
[17] = Homo sapiens, NCI-N87, read-out: IC50
[18] = Homo sapiens, A2780, read-out: IC50

Receptor tyrosine-protein kinase erbB-2 (Homo sapiens), sequence (P04626 whole entry, looked up): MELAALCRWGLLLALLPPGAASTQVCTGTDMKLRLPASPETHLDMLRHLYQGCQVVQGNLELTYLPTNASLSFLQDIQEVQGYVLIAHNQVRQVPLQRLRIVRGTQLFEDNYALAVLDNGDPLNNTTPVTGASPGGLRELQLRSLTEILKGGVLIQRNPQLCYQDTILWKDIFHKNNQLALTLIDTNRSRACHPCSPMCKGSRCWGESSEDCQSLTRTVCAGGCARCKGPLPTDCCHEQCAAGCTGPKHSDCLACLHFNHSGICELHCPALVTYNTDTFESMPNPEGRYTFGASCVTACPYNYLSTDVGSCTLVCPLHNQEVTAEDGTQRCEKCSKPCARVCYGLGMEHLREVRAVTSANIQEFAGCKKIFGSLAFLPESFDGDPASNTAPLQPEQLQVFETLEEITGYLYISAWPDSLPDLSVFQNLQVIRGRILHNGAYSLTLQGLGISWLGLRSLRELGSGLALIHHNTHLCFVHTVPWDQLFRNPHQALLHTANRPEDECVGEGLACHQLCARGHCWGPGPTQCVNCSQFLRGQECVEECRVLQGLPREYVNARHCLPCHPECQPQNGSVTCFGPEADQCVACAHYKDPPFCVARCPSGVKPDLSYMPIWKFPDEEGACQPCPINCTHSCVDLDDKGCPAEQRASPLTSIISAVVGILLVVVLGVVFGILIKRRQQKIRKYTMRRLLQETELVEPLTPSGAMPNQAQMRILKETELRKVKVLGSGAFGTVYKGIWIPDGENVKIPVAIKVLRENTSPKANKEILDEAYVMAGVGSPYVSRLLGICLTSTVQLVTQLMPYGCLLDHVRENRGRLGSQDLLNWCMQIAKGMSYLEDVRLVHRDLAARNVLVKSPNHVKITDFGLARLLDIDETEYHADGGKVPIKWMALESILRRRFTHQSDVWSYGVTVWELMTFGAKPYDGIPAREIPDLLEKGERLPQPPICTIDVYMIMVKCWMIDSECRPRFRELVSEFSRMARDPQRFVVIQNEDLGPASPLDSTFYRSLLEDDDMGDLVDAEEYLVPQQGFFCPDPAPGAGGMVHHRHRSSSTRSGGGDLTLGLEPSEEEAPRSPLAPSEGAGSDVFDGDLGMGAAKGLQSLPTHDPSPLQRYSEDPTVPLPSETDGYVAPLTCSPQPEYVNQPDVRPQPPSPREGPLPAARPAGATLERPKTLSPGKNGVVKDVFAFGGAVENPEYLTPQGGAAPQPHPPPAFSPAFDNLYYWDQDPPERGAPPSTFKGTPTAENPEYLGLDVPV
Epidermal growth factor receptor (Homo sapiens), sequence (P00533 whole entry, looked up): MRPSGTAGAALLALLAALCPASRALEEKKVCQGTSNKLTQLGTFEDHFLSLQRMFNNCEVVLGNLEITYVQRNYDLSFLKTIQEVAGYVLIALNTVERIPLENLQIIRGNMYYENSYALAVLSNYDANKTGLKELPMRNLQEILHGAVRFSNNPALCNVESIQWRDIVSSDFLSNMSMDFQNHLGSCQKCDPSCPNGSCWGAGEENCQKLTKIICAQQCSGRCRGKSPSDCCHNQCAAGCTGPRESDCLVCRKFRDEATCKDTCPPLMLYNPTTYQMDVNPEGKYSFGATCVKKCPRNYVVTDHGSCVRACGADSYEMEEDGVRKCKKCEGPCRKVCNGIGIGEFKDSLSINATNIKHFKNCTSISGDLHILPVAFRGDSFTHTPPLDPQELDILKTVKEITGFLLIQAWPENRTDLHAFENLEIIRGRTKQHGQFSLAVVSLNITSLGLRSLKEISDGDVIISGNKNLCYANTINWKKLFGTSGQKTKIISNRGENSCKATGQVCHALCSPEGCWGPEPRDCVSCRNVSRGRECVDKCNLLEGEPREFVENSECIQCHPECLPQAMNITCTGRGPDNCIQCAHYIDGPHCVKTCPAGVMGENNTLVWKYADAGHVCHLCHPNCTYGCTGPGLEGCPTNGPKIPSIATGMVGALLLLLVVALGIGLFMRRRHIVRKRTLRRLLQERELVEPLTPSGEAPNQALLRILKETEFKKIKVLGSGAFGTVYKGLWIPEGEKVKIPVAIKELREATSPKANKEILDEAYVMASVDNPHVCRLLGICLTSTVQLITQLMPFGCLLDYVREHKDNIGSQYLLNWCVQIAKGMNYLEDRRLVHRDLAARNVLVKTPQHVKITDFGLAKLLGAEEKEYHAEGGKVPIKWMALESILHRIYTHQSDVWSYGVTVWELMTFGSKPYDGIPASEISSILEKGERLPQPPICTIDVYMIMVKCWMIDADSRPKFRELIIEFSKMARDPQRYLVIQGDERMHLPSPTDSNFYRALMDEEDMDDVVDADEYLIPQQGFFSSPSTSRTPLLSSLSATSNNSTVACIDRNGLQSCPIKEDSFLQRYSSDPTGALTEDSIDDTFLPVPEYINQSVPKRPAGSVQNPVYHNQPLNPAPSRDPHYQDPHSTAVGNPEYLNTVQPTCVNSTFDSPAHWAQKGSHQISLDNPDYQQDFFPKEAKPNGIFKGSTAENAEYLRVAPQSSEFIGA
Vascular endothelial growth factor receptor 2, sequence (P35968 whole entry): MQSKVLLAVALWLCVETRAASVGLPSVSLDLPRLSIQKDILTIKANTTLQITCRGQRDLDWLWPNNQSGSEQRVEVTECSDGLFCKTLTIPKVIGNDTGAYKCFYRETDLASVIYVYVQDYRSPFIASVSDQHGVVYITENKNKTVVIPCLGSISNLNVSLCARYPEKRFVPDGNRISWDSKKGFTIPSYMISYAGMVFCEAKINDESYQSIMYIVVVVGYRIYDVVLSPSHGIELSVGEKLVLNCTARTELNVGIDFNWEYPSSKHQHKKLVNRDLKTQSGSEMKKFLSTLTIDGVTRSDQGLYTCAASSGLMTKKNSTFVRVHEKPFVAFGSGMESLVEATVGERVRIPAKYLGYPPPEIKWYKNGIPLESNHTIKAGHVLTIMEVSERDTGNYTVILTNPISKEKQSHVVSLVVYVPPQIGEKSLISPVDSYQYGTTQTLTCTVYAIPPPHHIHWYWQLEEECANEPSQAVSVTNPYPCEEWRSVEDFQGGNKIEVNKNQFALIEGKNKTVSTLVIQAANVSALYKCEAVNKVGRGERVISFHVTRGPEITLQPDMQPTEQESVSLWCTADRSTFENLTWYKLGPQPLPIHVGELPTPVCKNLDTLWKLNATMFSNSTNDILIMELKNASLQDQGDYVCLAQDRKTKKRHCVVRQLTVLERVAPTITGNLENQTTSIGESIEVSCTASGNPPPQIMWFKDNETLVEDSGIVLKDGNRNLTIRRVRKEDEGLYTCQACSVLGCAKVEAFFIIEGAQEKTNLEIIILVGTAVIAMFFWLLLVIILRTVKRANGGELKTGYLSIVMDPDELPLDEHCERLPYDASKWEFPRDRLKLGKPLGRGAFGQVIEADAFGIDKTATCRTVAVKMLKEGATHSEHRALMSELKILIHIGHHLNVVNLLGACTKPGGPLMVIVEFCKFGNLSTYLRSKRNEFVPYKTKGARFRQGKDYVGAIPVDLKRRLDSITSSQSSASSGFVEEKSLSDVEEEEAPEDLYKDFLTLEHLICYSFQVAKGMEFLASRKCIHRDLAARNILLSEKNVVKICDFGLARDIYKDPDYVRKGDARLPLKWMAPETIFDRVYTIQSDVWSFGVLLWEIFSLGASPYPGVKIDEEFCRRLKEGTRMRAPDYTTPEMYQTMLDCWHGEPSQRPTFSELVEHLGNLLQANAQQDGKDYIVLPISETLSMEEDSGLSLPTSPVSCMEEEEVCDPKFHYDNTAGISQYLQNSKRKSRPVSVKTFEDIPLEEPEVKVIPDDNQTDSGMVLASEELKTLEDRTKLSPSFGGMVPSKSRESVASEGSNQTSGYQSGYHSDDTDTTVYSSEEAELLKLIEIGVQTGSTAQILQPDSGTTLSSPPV
Tyrosine-protein kinase Lck, sequence (P06239 whole entry): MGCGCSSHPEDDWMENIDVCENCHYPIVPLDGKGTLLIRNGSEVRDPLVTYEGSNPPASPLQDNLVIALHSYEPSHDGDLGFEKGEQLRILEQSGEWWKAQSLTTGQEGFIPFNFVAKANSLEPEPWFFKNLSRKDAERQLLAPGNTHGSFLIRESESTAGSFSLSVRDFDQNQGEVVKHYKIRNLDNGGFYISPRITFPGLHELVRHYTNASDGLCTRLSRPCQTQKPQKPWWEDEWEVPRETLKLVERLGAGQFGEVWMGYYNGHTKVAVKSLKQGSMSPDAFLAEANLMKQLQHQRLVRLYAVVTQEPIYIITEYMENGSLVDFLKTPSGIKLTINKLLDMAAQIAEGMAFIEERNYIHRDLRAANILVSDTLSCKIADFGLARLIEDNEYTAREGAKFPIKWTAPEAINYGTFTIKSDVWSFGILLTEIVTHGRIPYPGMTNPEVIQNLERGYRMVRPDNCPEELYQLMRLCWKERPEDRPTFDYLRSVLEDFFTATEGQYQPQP

| SMILES | IC50 [2] | IC50 [3] | IC50 (A2780; [18]) | IC50 (NCI-N87 [1]; [17]) | other results |
| --- | --- | --- | --- | --- | --- |
| Cn1ncc2cc(Nc3ncnn4ccc(COC[C@@H]5CNCCO5)c34)ccc21 | > 1000 nM | > 1000 nM | – | – | IC50 (NCI-N87 [1]; nci-n87): Not Active; IC50 (A2780; a2780): Not Active |
| Cn1ncc2cc(Nc3ncnn4ccc(CN5CCC(N)CC5)c34)ccc21 | 360 nM | 950 nM | – | – | IC50 (NCI-N87 [1]; nci-n87): Not Active; IC50 (A2780; a2780): Not Active |
| C#Cc1cccc(Nc2ncnn3ccc(COC[C@@H]4CNCCO4)c23)c1 | 20 nM | 670 nM | 3900 nM | 4400 nM | – |
| CC(C)Nc1ncnn2ccc(CN3CCC(N)CC3)c12 | 880 nM | > 1000 nM | – | – | – |
| NC1CCN(Cc2ccn3ncnc(Nc4cc(Cl)cc(Cl)c4)c23)CC1 | 34 nM | 130 nM | 4000 nM | 3360 nM | – |
| COc1ccc(Nc2ncnn3ccc(CN4CCC(N)CC4)c23)cc1Cl | 70 nM | 210 nM | > 5000 nM | 1210 nM | – |
| Fc1cccc(Cn2ncc3cc(Nc4ncnn5ccc(COC[C@@H]6CNCCO6)c45)ccc32)c1 | – | – | – | – | concentration at 24 h [11]: 0.1 µM; fraction unbound at 10 µM [9]: 0.026; concentration at 3 h [12]: 5.8 µM; AUC(0-t) at 24 h [13]: 100 µM·h; minimal effective dose (NCI-N87 [14]): 60 mg/kg; Cmax [15]: 9.5 µM |
| NC1CCN(Cc2ccn3ncnc(Nc4ccc5c(cnn5Cc5cccc(F)c5)c4)c23)CC1 | 22 nM | – | – | – | concentration at 4 h [16]: 2.7 µM; minimal effective dose (NCI-N87 [14]): 60 mg/kg; Cmax [15]: 4.5 µM |
| Cc1c(NC(=O)OC[C@@H]2COCCN2)cn2ncnc(Nc3ccc4c(cnn4Cc4cccc(F)c4)c3)c12 [AC-480] | – | – | – | – | minimal effective dose [4]: 120 mg/kg; minimal effective dose (NCI-N87 [14]): 120 mg/kg |

Continued, in another order:

| IC50 [2] | IC50 [3] | IC50 (A2780; [18]) | SMILES | IC50 (NCI-N87 [1]; [17]) | other results |
| --- | --- | --- | --- | --- | --- |
| 7 nM | 10 nM | 2300 nM | C#Cc1cccc(Nc2ncnn3ccc(CN4CCC(N)CC4)c23)c1 | 120 nM | minimal effective dose [4]: 15 mg/kg |
| – | – | 3700 nM | NC1CCN(Cc2ccn3ncnc(Nc4ccccc4)c23)CC1 | 140 nM | – |
| 20 nM | 660 nM | > 5000 nM | Cc1ccccc1Nc1ncnn2ccc(CN3CCC(N)CC3)c12 | 3300 nM | – |
| 5 nM | 20 nM | > 5000 nM | Cc1cccc(Nc2ncnn3ccc(CN4CCC(N)CC4)c23)c1 | 140 nM | minimal effective dose [4]: 60 mg/kg |
| 6 nM | 50 nM | > 5000 nM | Cc1ccc(Nc2ncnn3ccc(CN4CCC(N)CC4)c23)cc1 | 790 nM | – |
| 6 nM | 32 nM | > 5000 nM | NC1CCN(Cc2ccn3ncnc(Nc4cccc(F)c4)c23)CC1 | 280 nM | – |
| 4 nM | 9 nM | > 5000 nM | NC1CCN(Cc2ccn3ncnc(Nc4cccc(Cl)c4)c23)CC1 | 60 nM | minimal effective dose [4]: 60 mg/kg |
| 4 nM | 6 nM | 2600 nM | NC1CCN(Cc2ccn3ncnc(Nc4cccc(Br)c4)c23)CC1 | 50 nM | – |
| 6 nM | 10 nM | > 5000 nM | NC1CCN(Cc2ccn3ncnc(Nc4ccc(F)c(Cl)c4)c23)CC1 | 120 nM | minimal effective dose [4]: 15 mg/kg; IC50 [5]: 110 nM; concentration at 3 h [6]: 7.2 µM; AUC(0-t) at 24 h [7]: 160 µM·h; concentration at 24 h [8]: 6.8 µM; fraction unbound at 10 µM [9]: 0.012; IC50 [10]: 370 nM |
